Where two headings read alike, the source gives them in different places. Marks after values point to notes of the source that are not given here. Some results are limits rather than exact numbers.

One series deals with P. falciparum strain 3D7. Briefly: In vitro parasite reduction ratio. The class given is cell-based, Plasmodium falciparum. The note with it: 10-fold IC50; 28 days recovery in drug-free medium.
The next series deals with HEK293 cells. The note with it: read-out: HEK293 IC50 (n1; n2); previously published; cited from earlier work.
The subject of series [1] is Plasmodium berghei. The note with it: previously published, cited from earlier work.
The subject of a further series is HeLa cells. To be noted: read-out: HeLa IC50 (n1; n2); previously published; cited from earlier work.
A short description of series [2]: Plasma protein binding, standard equilibrium dialysis assay. The class given is in vitro ADME. A general note: In equilibrium dialysis free small molecules cross a membrane that holds back macromolecules.
Another series can be described thus: Plasma stability. The class given is in vitro ADME, human.
Series [3] is described as follows: Calculation of hepatic clearance and hepatic extraction ratio. To be noted: calculated from in vitro assays.
A short description of series [4]: Snapshot pharmacokinetics. The note with it: P. berghei mice, single oral administration of 3, 10 and 30 mg/kg. The class given is in vivo.
The test system of series [5] is chloroquine-sensitive and chloroquine-resistant P. falciparum strains. Put plainly: Initial antiplasmodial in vitro assessment. The note with it: Plasmodium falciparum, read-out: IC50 (range over strains). The class given is cell-based.
Series [6] has as its system Plasmodium berghei. Briefly: Standard four-day Peters test in P. berghei-infected mice. To be noted: for cured: parasite-free mice on day 30.
A further series has as its system P. falciparum isolates. Put plainly: Ex vivo growth inhibition assay of clinical isolates. The class given is cell-based. To be noted: Plasmodium falciparum.
The nature of series [7]: Microsomal binding, equilibrium dialysis. The class given is in vitro ADME. The note with it: human, human liver microsomes, microsomal binding (fraction bound), 1 μM in 0.5 mg/mL HLMs.
A short description of series [8]: Chemical stability in aqueous solution. The class given is physicochemical. To be noted: phosphate buffer pH 7.4, room temperature, over 24 h, n = 3.
Series [9] can be described thus: Plasma protein binding, dilution method.
Another series has as its system P. falciparum Dd2 Polδ. Put plainly: Single-step resistance selection assay. It counts as cell-based, Plasmodium falciparum.
The next series relates to RF12 (PH-1263-C). Briefly: microbe, parasite or virus in culture. It counts as cell-based. The note with it: Plasmodium falciparum, 72 h, read-out: IC50, RF12 (PH-1263-C).
A further series deals with Pf NF54. Briefly: 72 h [3H]hypoxanthine incorporation assay. It counts as cell-based. To be noted: Plasmodium falciparum, NF54, 72 h.
The test system of a further series is Pf Dd2. Put plainly: Antiplasmodial in vitro activity, HRP2 ELISA. It counts as cell-based. The note with it: Plasmodium falciparum, DD2, read-out: Pf Dd2 IC50 ± SD. For orientation: ELISA stands for enzyme-linked immunosorbent assay.
The conditions of series [10]: cited from earlier work.
For series [11] the following is noted: cited from earlier work. This is another data set of the same source.

In general, IC50 refers to the concentration that inhibits the measured activity by half. In general, fraction unbound refers to the share of the substance not bound to proteins or other matrix. Read a low fraction unbound as extensive binding. In the case of `COc1ccc(/N=C(\N)CC(O)c2cc3c(F)cc(F)cc3c3cc(C(F)(F)F)ccc23)cc1` (centres unmarked) [1 (TKK129)], in the series on P. falciparum strain 3D7, the “exposure time reducing the number of viable parasites to baseline” value (“exposure time reducing the number” below) is recorded as no more than 24 h. Besides, the 50% inhibitory concentration (IC50) is 36.8 µM in the series with HEK293 cells and 46.1 µM with HeLa cells. Besides, the MSD entry in the series on Plasmodium berghei [1] (oral 4 × 3 mg/kg) is “euthanized”. In addition, the cured was 0/3 in the series on Plasmodium berghei [1] (oral 4 × 3 mg/kg), 0/3 with Plasmodium berghei [1] (oral 4 × 10 mg/kg), 1/3 in the series on Plasmodium berghei [1] (oral 4 × 30 mg/kg) and 2/3 with Plasmodium berghei [1] (oral 4 × 50 mg/kg). For the same molecule, the unbound share (fraction unbound) at 24 h, 25 ng/mL in series [2] was less than 0.01. This molecule also registered a plasma stability in the series “Plasma stability” (at 37 °C, time without decrease) of 24 h at 37 °C.

The term half-life denotes how long it takes for the measured level to halve. A high value points to slow decline. Take `Cl.N=C(CC(O)c1cc2c(F)cc(F)cc2c2cc(C(F)(F)F)ccc12)Nc1ccc(F)cc1` (centres unmarked) [2 (TKK130), (Z)-3-(1,3-Difluoro-6-(trifluoromethyl)phenanthrene-9-yl)-N′-(4-fluorophenyl)-3-hydroxypropanimidamid Hydrochlorid]: in [3], the hepatic extraction ratio is given as 0.17. The hepatic clearance in series [3] (hepatic blood flow 1500 mL/min) was 0.25 L/min. Besides, the “time at which maximum concentration was reached” value in series [4] is 4 h. Further, the half-inhibitory concentration (IC50) was 0.002 to 0.012 µM in series [5]; 0.0251 µM with P. falciparum isolates (read-out: max IC50); 0.0014 µM with P. falciparum isolates (read-out: min IC50); 0.004 µM in the series with RF12 (PH-1263-C); 0.012 µM in the series with Pf NF54 (read-out: IC50, NF54). The “exposure time reducing the number” value in the series with P. falciparum strain 3D7 is no more than 24 h. The “signs of toxicity during the in vivo studies” value in the series on Plasmodium berghei [6] (mice, oral dosing) is listed as “no obvious signs of toxicity”. In addition, the cured in the series on Plasmodium berghei [6] (oral 4 × 3 mg/kg) is 0/3; in the series on Plasmodium berghei [6] (oral 4 × 10 mg/kg), 1/3; in the series with Plasmodium berghei [6] (oral 4 × 30 mg/kg) it was 3/3; with Plasmodium berghei [6] (oral 4 × 50 mg/kg) it was 3/3. Moreover, the unbound share (fraction unbound) at 24 h, 1 μM in series [7] is 0.026. The same molecule showed a chemical stability in [8] greater than 90%. The unbound share (fraction unbound) at 24 h, 25 ng/mL in [9] (plasma) was 0.004. Further, the “day on which treated cultures were clear” value in the series on P. falciparum Dd2 Polδ (9 nM (3-fold IC50), inocula 2 × 10^7 and 2 × 10^9) is 4 days. Moreover, in the series on P. falciparum Dd2 Polδ (9 nM, inocula 2 × 10^7 and 2 × 10^9, 60 days of recovery time), the “parasite growth after selection” value is reported as “no subsequent parasite growth could be observed”. For the same molecule, the half-life at 25 ng/mL in the series “Plasma stability” (human, plasma) is 67 h.

Regarding `C[C@@H]1CC[C@H]2[C@@H](C)C(=O)O[C@@H]3O[C@@]4(C)CC[C@@H]1[C@]32OO4` [AS, Artemisinin, reference compound], the cured in the series with Plasmodium berghei [6] (oral 4 × 30 mg/kg) is 0/10.

On to `CCN(CC)CCCC(C)Nc1ccnc2cc(Cl)ccc12` (centres unmarked) [CQ, Chloroquine], for which, in the series with Plasmodium berghei [6] (oral 4 × 30 mg/kg), the cured is given as 0/10. Moreover, the IC50 amounted to 0.24 ± 0.13 µM with Pf Dd2; 0.011 µM with Pf NF54 (read-out: IC50, NF54); 0.012 ± 0.001 µM with Pf NF54 (read-out: Pf NF54 IC50 ± SD).

`Cc1cc(Nc2ccc(S(F)(F)(F)(F)F)cc2)n2nc(C(C)(F)F)nc2n1` [DSM265, reference compound]: the “day of recrudescence of parasites” value in the series with P. falciparum Dd2 Polδ (12 nM (3-fold IC50), inoculum 2 × 10^7 per flask, all three replicate flasks) came out at 16 days.

Take `CCCCN(CCCC)CCC(O)c1cc2c(Cl)cc(Cl)cc2c2cc(C(F)(F)F)ccc12` (centres unmarked) [Hf, Halofantrine]: the “microsomal stability (60 min), Clint” value in [10] is “Clint = 26.9 μL/min/mg^d”. The plasma protein binding in [11] (plasma) was >99^d %.

For `CCCCN(CCCC)CC(O)c1cc(Cl)cc2c1-c1ccc(Cl)cc1/C2=C/c1ccc(Cl)cc1` (centres unmarked) [LUM, Lumefantrine], the “microsomal stability (60 min), Clint” value in series [10] was “Clint = <7 μL/min/mg^d”. For the same molecule, the cured in the series with Plasmodium berghei [6] (oral 4 × 30 mg/kg) is recorded as 3/3. The plasma protein binding in series [11] was >99^d %.

As for `O=C1C(O)=C([C@H]2CC[C@H](c3ccc(Cl)cc3)CC2)C(=O)c2ccccc21` [atovaquone, reference compound], the “exposure time reducing the number” value in the series with P. falciparum strain 3D7 stood at 120 h.

The molecule `CCC(C)n1ncn(-c2ccc(N3CCN(c4ccc(OCC5COC(Cn6cncn6)(c6ccc(Cl)cc6Cl)O5)cc4)CC3)cc2)c1=O` (centres unmarked) [itraconazole, reference compound] had a fraction unbound at 24 h, 25 ng/mL in [9] (plasma diluted 1:10 or 1:20 in 0.9% saline) of 0.006.

Regarding `CCc1nc(N)nc(N)c1-c1ccc(Cl)cc1` [pyrimethamine, reference compound], in the series on P. falciparum strain 3D7, the “exposure time reducing the number” value turned out to be 72 h.

The values above are taken from publication PMC12992107 (Journal of medicinal chemistry, 2024).
